Experimental data published in patent publication US20100303790A1, “USE OF BILIVERDIN REDUCTASE (BVR) AND BVR PEPTIDE FRAGMENTS TO TREAT CORONARY DISORDERS” (UNIVERSITY OF ROCHESTER, priority 2009, published 2010).
Entries after “also recorded” stand apart in the source; their conditions may differ.

Key:
BVR = biological target: T1, BVR (Rattus norvegicus, UniProt P46844); assay: Langendorff perfused heart: BVR activity (biliverdin to bilirubin, pH 6.7); type: in vivo
T1 construct: Cardiomyocytes and heart tissue samples were lysed in buffer containing 100 mM sodium phosphate pH 7.4; from tissue; host or cells: isolated Langendorff-perfused rat heart, lysate
T1 sequence (P46844 3-295): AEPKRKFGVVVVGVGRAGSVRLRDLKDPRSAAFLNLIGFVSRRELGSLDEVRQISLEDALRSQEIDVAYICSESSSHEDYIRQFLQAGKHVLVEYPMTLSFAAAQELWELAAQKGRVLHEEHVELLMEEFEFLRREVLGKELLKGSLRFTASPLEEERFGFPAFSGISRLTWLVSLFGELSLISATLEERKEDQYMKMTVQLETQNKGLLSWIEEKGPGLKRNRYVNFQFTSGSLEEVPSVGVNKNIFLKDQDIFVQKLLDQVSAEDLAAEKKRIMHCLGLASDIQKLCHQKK
Source text: In Vivo Experimental Langendorff Model: Male Sprague-Dawley rats weighing 250-300 g (Charles River, Boston, Mass.) were used in this study; the protocol is based on that described by Tompkins et al., “Mitochondrial Dysfunction in Cardiac Ischemia-Reperfusion Injury: ROS From Complex I, Without Inhibition,” Biochim Biophys Acta 1762:223-231 (2006), which is hereby incorporated by reference in its entirety, with minor modification. The rats were fed a standard rat chow and had water ad libitum. All experiments were approved by the University of Rochester Institutional Animal Care and Use Committee. Rats were given two subcutaneous injections of isoproterenol (ISO) (0.01 mg/kg), 6 hours apart, then anesthetized with freshly prepared Avertin (2,2,2-tribromoethanol, […] injected intraperitoneally), and treated with heparin (5000 U/kg), i.p., to protect the heart against microthrombi. The aorta was cannulated in situ with a 22-gauge needle filled with warm Krebs-Henseleit (KH) buffer. The heart was rapidly transferred (<10 s.) to a perfusion apparatus, and retrograde (Langendorff) perfusion begun with 37° C. […] Hemodynamics and heart rate were recorded by inserting a water-filled balloon connected to a transducer (Radnoti LLC, model no. 159904B) into the left ventricle. […]
Measurement of BVR Activity: Cardiomyocytes and heart tissue samples were lysed in buffer containing 100 mM sodium phosphate pH 7.4, 1% Nonidet-P-40, 10% glycerol, 0.2 mM dithiothoeitol, 10 mM NaF, protease inhibitor mixture (10 μg/ml aprotinin, 10 μg/ml leupeptin, 10 μg/ml pepstatin, and 0.1 mM phenylmethylsulfonyl fluoride). BVR activity was measured at pH 6.7 as described previously (Huang et al., “Detection of 10 Variants of Biliverdin Reductase in Rat Liver by Two-Dimensional Gel Electrophoresis,”J Biol Chem 264:7844-7849 (1989), which is hereby incorporated by reference in its entirety). The rate of conversion of biliverdin to bilirubin was determined as the increase in absorbance at 450 nm at 25° C. Specific activity is expressed as nanomoles of bilirubin/min/mg of protein. […]

[1] = test system: cardiomyocytes in the intact heart; assay: Langendorff perfused heart: apoptosis (TUNEL, genomic DNA fragmentation); type: in vivo, rat; conditions: for apoptosis in cardiomyocytes of the perfused heart (TUNEL): 0.1 μM ISO, peptides 25 μM together with ISO
Source text: Analysis of Apoptosis: The terminal deoxyribonucleotide transferase-mediated dUTP nick-end labeling (TUNEL) assay was used to detect in situ DNA fragmentation, using the In Situ Cell Death Detection Kit (Roche) as described previously (Ding et al., “Functional Role of Phosphodiesterase 3 in Cardiomyocyte Apoptosis: Implication in Heart Failure,” Circulation 111:2469-2476 (2005), which are hereby incorporated by reference in their entirety). In addition, the cells were stained for cardiomyocyte-specific sarcomeric α-actinin with the antibody EF-53 to distinguish cardiomyocytes from contaminating fibroblasts; and only EF-53 positive cells were counted. Three independent experiments were performed and an average of 1,000 EF-53 positive cells from random fields were analyzed.
DNA Electrophoresis: Total cellular DNA was isolated from untreated and treated cells by lysis in 10 mM Tris-HCl, pH 7.8; 1 mM, EDTA, 10 mM NaCl, 1% (w/v) SDS and 1 mg/ml proteinase K at 60° C. for 2 hours. The lysate was extracted twice each with phenol-choloroform (1:1, v/v) and chloroform, followed by precipitation with ethanol. The precipitate was collected by centrifugation, washed once in 70% ethanol, and resuspended in TE containing 1 mg/ml RNase at 37° C. for 30 min. DNA was resolved by electrophoresis in 2.0% agarose gels containing ethidium bromide.
In Vivo Experimental Langendorff Model: Male Sprague-Dawley rats weighing 250-300 g (Charles River, Boston, Mass.) were used in this study; the protocol is based on that described by Tompkins et al., “Mitochondrial Dysfunction in Cardiac Ischemia-Reperfusion Injury: ROS From Complex I, Without Inhibition,” Biochim Biophys Acta 1762:223-231 (2006), which is hereby incorporated by reference in its entirety, with minor modification. The rats were fed a standard rat chow and had water ad libitum. All experiments were approved by the University of Rochester Institutional Animal Care and Use Committee. Rats were given two subcutaneous injections of isoproterenol (ISO) (0.01 mg/kg), 6 hours apart, then anesthetized with freshly prepared Avertin (2,2,2-tribromoethanol, […] injected intraperitoneally), and treated with heparin (5000 U/kg), i.p., to protect the heart against microthrombi. The aorta was cannulated in situ with a 22-gauge needle filled with warm Krebs-Henseleit (KH) buffer. The heart was rapidly transferred (<10 s.) to a perfusion apparatus, and retrograde (Langendorff) perfusion begun with 37° C. KH buffer gassed with 95% O2 plus 5% CO2, in constant flow mode (12 ml/min). […] Hemodynamics and heart rate were recorded by inserting a water-filled balloon connected to a transducer (Radnoti LLC, model no. 159904B) into the left ventricle. […]

isolated perfused heart = assay: Langendorff perfused heart: left ventricle contractile function and heart rate; type: in vivo, rat; conditions: for left ventricle contractile function (systolic pressure, developed pressure, dp/dt, -dp/dt): peptide 25 μM with 0.1 μM isoproterenol, vs isoproterenol alone
Source text: In Vivo Experimental Langendorff Model: Male Sprague-Dawley rats weighing 250-300 g (Charles River, Boston, Mass.) were used in this study; the protocol is based on that described by Tompkins et al., “Mitochondrial Dysfunction in Cardiac Ischemia-Reperfusion Injury: ROS From Complex I, Without Inhibition,” Biochim Biophys Acta 1762:223-231 (2006), which is hereby incorporated by reference in its entirety, with minor modification. The rats were fed a standard rat chow and had water ad libitum. All experiments were approved by the University of Rochester Institutional Animal Care and Use Committee. Rats were given two subcutaneous injections of isoproterenol (ISO) (0.01 mg/kg), 6 hours apart, then anesthetized with freshly prepared Avertin (2,2,2-tribromoethanol, […] injected intraperitoneally), and treated with heparin (5000 U/kg), i.p., to protect the heart against microthrombi. The aorta was cannulated in situ with a 22-gauge needle filled with warm Krebs-Henseleit (KH) buffer. The heart was rapidly transferred (<10 s.) to a perfusion apparatus, and retrograde (Langendorff) perfusion begun with 37° C. KH buffer gassed with 95% O2 plus 5% CO2, in constant flow mode (12 ml/min). Perfusion was performed using 0.1 μM ISO or KH buffer as a control; the hBVR-derived peptides KKRILHC^281 (25 μM) or KYCCSRK^296 (25 μM) were included in perfusion medium with or without ISO. Hemodynamics and heart rate were recorded by inserting a water-filled balloon connected to a transducer (Radnoti LLC, model no. 159904B) into the left ventricle. The transducer was connected to a data acquisition system (DATAQ Instrument, Akron Ohio, Model: DI-205). At the end of each experiment, the heart was cut into 5 μm sections for TUNEL study or homogenized for western blots.
The effect of peptides on the integrity of the heart was also examined in the perfusion system, by measuring left ventricle contractile function in the presence of isoproterenol as a function of time.

[2] = peptide 25 μM with isoproterenol

With “KYCCSRK (biliverdin reductase peptide) [KYCCSRK^296]” the BVR activity (BVR; peptide 25 μM alone) was “increased BVR activity”, the BVR reductase activity (BVR; peptide 25 μM and 0.1 μM ISO) was “significant activation” and the “apoptosis in cardiomyocytes of the perfused heart (TUNEL)” value (from here on “apoptosis in cardiomyocytes”) [1] was “decreased apoptosis; also recorded: nearly complete reduction in apoptosis”. For the same molecule, the “left ventricle contractile function (systolic pressure, developed pressure, dp/dt, -dp/dt)” value (isolated perfused heart) was “slowed the decrease in contractile function; also recorded: improved cardiac function” and the “change in heart rate observed with isoproterenol alone” value (isolated perfused heart; [2]) was “Neither peptide affected the change in heart rate”.

For “KKRILHC (biliverdin reductase peptide) [KKRILHC^281]”, the BVR activity (BVR; peptide 25 μM, whether ISO was present or not) was “blocked the activity of BVR”, the “apoptosis in cardiomyocytes” value [1] was “increase in apoptosis; also recorded: significant increases in apoptosis” and the “fragmentation of genomic DNA from perfused heart” value ([1]; peptide 25 μM with ISO) was “fragmentation is detectable”. For the same molecule, the “left ventricle contractile function (systolic pressure, developed pressure, dp/dt, -dp/dt)” value (isolated perfused heart) was “the rate of decline was increased; also recorded: significantly diminished cardiac function”, the “change in heart rate observed with isoproterenol alone” value (isolated perfused heart; [2]) was “Neither peptide affected the change in heart rate” and the “time after initiating perfusion by which the increased rate of decline was observed” value (isolated perfused heart; [2]) was no more than 30 min.

In the case of `CC(C)NCC(O)c1ccc(O)c(O)c1` (stereo not shown) [isoproterenol], the “apoptosis in cardiomyocytes” value [1] is reported as “increased apoptosis” and the “heart rate, left ventricular systolic pressure, development pressure, dp/dt, -dp/dt over the course of the experiment” value (isolated perfused heart; 0.1 μM isoproterenol perfusion) is reported as “declined”.
